Laboratory results reported in patent publication US9730889B2, “Steroid-sparing effects of beta-adrenergic inverse agonists and uses thereof” (University of Houston System, priority 2011, dated 2017).
Read-outs that look alike come from different tables or passages of the source.

Columns and labels:
BAL eosinophils = assay: BAL eosinophil numbers in OVA sensitized and challenged mice; format: in vivo, BALB/c mice
Description: (§1) Six-week to eight-week-old BALB/c mice (Jackson Animal Laboratory, Bar Harbor, Me.) were housed under specific pathogen-free conditions.
(§2) Mice were immunized against allergen by means of sensitization (once weekly intraperitoneal injection on days 0, 7, and 14) and challenge (once daily intranasal instillation for 5 days on days 41-45) with ovalbumin (OVA) as described (FIG. 1) (19).
(§3) Untreated sensitized and challenged mice or mice that had not undergone the sensitization and challenge process, received vehicle and were fed with normal mouse chow. […] Experimental mice were sacrificed on day 46.
Brochoalveolar lavage (BAL) fluid was acquired via infusion and recovery of cold PBS (2×1 ml) through the tracheal cannula from euthanized (pentobarbital 0.1 ml of 65 mg/ml) mice. Brochoalveolar lavage total leukocyte count and differentiated cell counts were performed as described (19).
Leukocytes and cytokines were measured in BAL fluid of OVA-sensitized mice 24 hours after the last of five daily nasal challenges with OVA (FIG. 1).

[1] = tested on: mucin content in the airway epithelium; assay: Airway epithelial mucin content (PAFS staining, mucin volume density) in OVA sensitized and challenged mice; format: in vivo, BALB/c mice; settings: for reduction in mucin content: high dose: dexamethasone 4 mg/kg/day
Description: as §1, §2, §3
Lungs were perfused with 4% paraformaldehyde in PBS (pH 7.0) via a tracheal cannula at room temperature, then removed from the thoracic cavity and further fixed overnight at 4° C. (25). After overnight fixation, lungs were embedded in paraffin and then sectioned and stained with periodic acid fluorescent Schiff's (PAFS) reagent to examine intracellular mucin. Tissue sections were examined under a 40× objective and images (MagnaFire 2.1 Optronics) were acquired prior to any measurements and analyzed (ImagePro Plus) by blinded investigators (25).

cytokines in BAL fluid = assay: Cytokines in BAL fluid of OVA sensitized and challenged mice (multiplex ELISA); format: in vivo, BALB/c mice; settings: Dex 4.0 mg/kg/day, Nad 250 ppm, 24 h after last OVA challenge
Description: as §1, §2, §3
The supernatants from brochoalveolar lavage samples, collected 24 hours after the last challenge with OVA, were provided to Pierce Searchlight, Aushon BioSystems, Inc. in blinded fashion. The concentrations of eotaxin, macrophage-derived chemokine (MDC), thymus and activation regulated chemokine (TARC), interleukin (IL)-1α, IL-5, IL-6, IL-12p70, IL-13, IL-17, IL-23, interferon (IFN), tumor necrosis factor alpha (TNF-a) and transforming growth factor beta (TGF-β1) were measured using multiplex enzyme-linked immunosorbent assay.
Definition of abbreviations in Table 1 are Th1/2/17=T helper (1, 2, or 17) type inflammation; MDC=macrophage-derived chemokine; TARC=thymus and activation regulated chemokine; IL=interleukin-1a, IL-5, IL-6, IL-12p70, IL-13, IL-17, IL-23; IFNγ=interferon gamma; TNFα=tumor necrosis factor alpha; TGFβ1=transforming growth factor betal. The percentage from No Rx is in comparison to No OVA for each cytokine, while percentage of each drug treatment group [Dex (4.0 mg/kg/day); Nad (250 ppm); and Dex+Nad (0.4 mg/kg/day+25 ppm)] is in comparison to No Rx. Values are the means±SEM of data from 4 mice in each group (n=4); and *, indicate significant difference compared to No Rx, P<0.05.

mucin content = settings: previous study (19), cited from earlier work
[2] = tested on: airway hyperresponsiveness; settings: mild asthmatics, dose escalation protocol; cited from earlier work
[3] = intermediate doses: dexamethasone 0.4 mg/kg/day IP 8 days, nadolol 25 ppm in chow 28 days, BAL 24 h after last OVA challenge
[4] = low doses: dexamethasone 0.1 mg/kg/day IP 8 days, nadolol 5 ppm in chow 28 days, BAL 24 h after last OVA challenge

SMILES	reduction in eosinophils (BAL eosinophils; [3]) [%]	reduction in eosinophils (BAL eosinophils; [4]) [%]	reduction in mucin content ([1]; nadolol 250 ppm) [%]	IL-1a, percentage in comparison to No Rx (cytokines in BAL fluid)	IL-5, percentage in comparison to No Rx (cytokines in BAL fluid)	IL-6, percentage in comparison to No Rx (cytokines in BAL fluid)	IL-12p70, percentage in comparison to No Rx (cytokines in BAL fluid)	IL-13, percentage in comparison to No Rx (cytokines in BAL fluid)	IL-17, percentage in comparison to No Rx (cytokines in BAL fluid)	IL-23, percentage in comparison to No Rx (cytokines in BAL fluid)	MDC, percentage in comparison to No Rx (cytokines in BAL fluid)	TARC, percentage in comparison to No Rx (cytokines in BAL fluid)	TGFβ1, percentage in comparison to No Rx (cytokines in BAL fluid)	TNFa, percentage in comparison to No Rx (cytokines in BAL fluid)	eotaxin, percentage in comparison to No Rx (cytokines in BAL fluid)	IFNg level in BAL fluid (cytokines in BAL fluid; mean ± SEM, n=4) [pg/mL]	IL-1a level in BAL fluid (cytokines in BAL fluid; mean ± SEM, n=4) [pg/mL]	IL-5 level in BAL fluid (cytokines in BAL fluid; mean ± SEM, n=4) [pg/mL]	IL-6 level in BAL fluid (cytokines in BAL fluid; mean ± SEM, n=4) [pg/mL]	IL-12p70 level in BAL fluid (cytokines in BAL fluid; mean ± SEM, n=4) [pg/mL]	further results
C[C@@H]1C[C@H]2[C@@H]3CCC4=CC(=O)C=C[C@]4(C)[C@@]3(F)[C@@H](O)C[C@]2(C)[C@@]1(O)C(=O)CO [dexamethasone]	58	36	72	(233%)*	(30%)*	(163%)	(180%)	(27%)*	(0) %	(200%)	(5%)*	(15%)*	(35%)*	(23%)*	(27%)*	90 ± 1.1	35 ± 7.1	63 ± 19.3	39 ± 28.2	9 ± 1.3	reduction in eosinophils (BAL eosinophils; high-dose dexamethasone 4.0 mg/kg/day IP 8 days): 89%; IFNg, percentage in comparison to No Rx (cytokines in BAL fluid): (1500%); IL-13 level in BAL fluid (cytokines in BAL fluid; mean ± SEM, n=4): 12 ± 5.0 pg/mL; IL-17 level in BAL fluid (cytokines in BAL fluid; mean ± SEM, n=4): 2 ± 0.4 pg/mL; IL-23 level in BAL fluid (cytokines in BAL fluid; mean ± SEM, n=4): 74 ± 10.0 pg/mL; MDC level in BAL fluid (cytokines in BAL fluid; mean ± SEM, n=4): 10 ± 1.0 pg/mL; TARC level in BAL fluid (cytokines in BAL fluid; mean ± SEM, n=4): 475 ± 47.0 pg/mL; TGFβ1 level in BAL fluid (cytokines in BAL fluid; mean ± SEM, n=4): 4675 ± 792 pg/mL; TNFa level in BAL fluid (cytokines in BAL fluid; mean ± SEM, n=4): 14 ± 1.0 pg/mL; eotaxin level in BAL fluid (cytokines in BAL fluid; mean ± SEM, n=4): 12 ± 2.0 pg/mL
CC(C)(C)NCC(O)COc1cccc2c1CC(O)C(O)C2 (stereo not shown) [nadolol]	36	20	86	(73%)	(56%)*	(88%)	(140%)	(13%)*	(50%)	(76%)	(27%)*	(19%)*	(45%)*	(53%)*	(80%)	7 ± 1.1	11 ± 5.0	118 ± 33.0	21 ± 10.0	7 ± 1.0	maximal reductions in airway eosinophilia from OVA S/C (BAL eosinophils; nadolol 250 ppm, detected at day 7 of treatment): ~50%; change in mucin content ([1]; all doses of chronic nadolol (5, 25, 250 ppm)): significant decreases; mucin volume density after 7 days of treatment vs vehicle treated control mice ([1]; nadolol 250 ppm, 7 days): significant reductions; day at which maximal effect on mucin volume density is achieved ([1]; nadolol 250 ppm, time course): 22 days; IL-13 level in BAL fluid (cytokines in BAL fluid; mean ± SEM, n=4): 6 ± 2.0 pg/mL; IL-17 level in BAL fluid (cytokines in BAL fluid; mean ± SEM, n=4): 1 ± 0.2 pg/mL; IL-23 level in BAL fluid (cytokines in BAL fluid; mean ± SEM, n=4): 28 ± 4.3 pg/mL; TARC level in BAL fluid (cytokines in BAL fluid; mean ± SEM, n=4): 593 ± 223.5 pg/mL; TGFβ1 level in BAL fluid (cytokines in BAL fluid; mean ± SEM, n=4): 5891 ± 710 pg/mL; TNFa level in BAL fluid (cytokines in BAL fluid; mean ± SEM, n=4): 33 ± 8.0 pg/mL; eotaxin level in BAL fluid (cytokines in BAL fluid; mean ± SEM, n=4): 36 ± 6.0 pg/mL; reduction in mucin content (mucin content; 7 days of treatment with nadolol): very modest reduction; reduction in mucin content (mucin content; 28 days of treatment with nadolol): ~90%; airway hyperresponsiveness [2]: reduction in airway hyperresponsiveness
